Assay results: PMC4838304, “Effective Design of Multifunctional Peptides by Combining Compatible Functions” (PLoS Computational Biology, 2016)
Where two headings read alike, the source gives them in different places.

Columns and labels:
[1] = tested on: pheromone-signaling pathway (Fus1-eGFP) in MATa cells; test: Pheromone signaling assay, Fus1-GFP expression and shmoo phenotype; format: cell-based, Saccharomyces cerevisiae; conditions: BY4741 fus1::eGFP, 60 μM peptide (20 μM for α-factor), 3h
Protocol: Finally, the activity of the α-factor embedded in the peptides was evaluated by activation of the pheromone-signaling pathway in MATa cells of S. cerevisiae. We monitored the pheromone signaling activity by following the expression of the GFP-labeled Fus1 protein. Fus1 is among the proteins with the highest pheromone-induced expression and is required for cell-cell fusion during mating. […] The observed phenotype was consistent with the activation of signaling showing a mating protrusion, often called “shmoo” as well as the absence of budding due to inhibition of the Cdc28 cyclin [35, 36].
Fig 5 Pheromone activity. The pheromone signaling pathway is confirmed by the expression of Fus1-GFP, characteristic “shmoo” phenotype and the absence of budding observed in differential interference contrast (DIC) bright field. Concentrations were 20 μM for α-factor and 60 μM for all other peptides. The negative control was water without any peptide.
Pheromone signaling induction in Saccharomyces cerevisiae was measured by induction of eGFP fluorescence in a BY4741 strain containing the Fus1-eGFP construct in place of the wild type Fus1 (MATa his3Δ1 leu2Δ0 met15Δ0 ura3Δ0 fus1::eGFP HIS3MX6, obtained from the yeast GFP collection). The BY4741 fus1::eGFP strain was grown overnight in YPD to mid-log phase and diluted to 10^6 cells/mL. Samples were treated with the respective peptide concentrations and incubated for 3h before mixing 1:1 with low-diffusivity agarose suspended on a covered glass slide. Images were taken with an Olympus FV10 confocal microscope using a 60x objective with […]. Images were analyzed using Fiji (www.fiji.sc). The only modifications applied to the images were separation of the bright field and GFP channels, adjustment of brightness and contrast to 50% and addition of scale bars.

[2] = tested on: Escherichia coli strain DH5α; test: microbe, parasite or virus in culture; format: cell-based
Source text: If CPP, DNA binding and AMP activities are compatible, the designed peptides should inhibit bacterial growth. Here we exposed E. coli DH5α cells to varying low concentrations of the designed peptides as well as several controls (see Fig 4). […] To test whether α-factor was important for AMP activity we also tested pure α-factor, pure NLS, the optimized NLS fitting CPP rules (NLS-CE) and the Iztli-1 peptide, a previously reported peptide with an embedded α-factor specifically designed to have antibacterial activity. […] A linear trend could be observed between concentration and growth inhibition (regression lines with standard deviations shown in Fig 6). […] The minimal inhibitory concentrations for E. coli are reported in Table 2 (growth curves are shown in S4 Fig).
Fig 6 Antibacterial activity. DH5α E. coli cells were treated with varying concentrations of peptides ranging from 0 to 16 μM for the peptides and 0 to 48 μM for Ampicillin. The relative area under the growth curve measured the growth inhibition. Measurements from four repetitions distributed onto two different plates are shown as dots colored by their respective concentrations. Linear regressions are shown as blue lines and their respective standard errors as blue shades. Dashed lines indicate the mean area under the curve for the H2O controls and its 50% value respectively. Minimal inhibitory concentrations to achieve 50% or 100% of cell growth inhibition are reported.
Escherichia coli strain DH5α was grown for 12 hours to mid-log phase and diluted to 8·10^5 cells/ml by using the reference OD obtained by absorption spectroscopy. Each sample 100μL culture was treated with 50μL solution containing the respective peptide in the desired concentration or water in the case of the controls. Growth curves were measured on two 96 well half area plates with two replicates each followed for 24h using a plate reader (Synergy, USA). In order to minimize plate-specific effects due to variations in loading time or initial cell numbers, different plates measurements were normalized by the time-point where the water control samples reached their half-maximal OD before combining. The respective minimum from each growth curve was subtracted from the normalized data from individual or combined plates. Areas under the curves were obtained by applying a linear interpolation to the OD curves, which was then integrated exactly. Growth rates were obtained by log-transforming the growth curves, identifying the exponential phase by the linear parts in that log-transformation (OD600 between 0.05 and 0.5) and performing a linear regression in the exponential phase with the slope denoting the respective growth rate. All mentioned methodology was implemented in R (www.r-project.org) and is available as open source at http://github.com/cdiener/dcf.
Using the slope of the linear regressions determined in these experiments, we estimated the minimal inhibitory concentration (MIC) for E. coli of our 3 CPP designed peptides (α-NLS-C, NLS-α-CE and chimera) and tested it experimentally.

[3] = Circular dichroism, secondary structure content (CONTIN/LL); format: physicochemical; conditions: for Secondary Structure Random coil / Secondary Structure α-Helix / Secondary Structure β-Sheet: 0.3mg in 1mL, 20°C, far-UV CD, CONTIN/LL
Protocol: We studied the structural properties of the peptides in vitro, using circular dichroism (see Materials and Methods). The far-UV CD spectra for NLS-CE, NLS-α and NLS-α-CE in water matched the characteristics of a random coil conformation.
Circular dichroism spectra were recorded on a ChirascanTM CD Spectrometer (Applied Photophysics, UK) equipped with a peltier temperature controller. 0.3mg of each peptide was dissolved in 1mL of water or 50% aqueous trifluoroethanol and placed in quartz cuvettes of 0.1cm path length. Far-UV CD spectra were collected from 185 to 250 nm at 20°C. Spectra were averaged over 5 scans and the averaged blank spectra of solvents were subtracted. Ellipticity is reported as mean residue molar ellipticity and recorded in terms of molar elipticity [θ] (deg cm^2 dmol^−1). CONTIN/LL within the CDPro analysis software program was used to estimate the secondary structure content of the peptides.

[4] = tested on: pGREG546 plasmid; test: Electrophoretic mobility shift assay (EMSA), DNA retention; format: binding; conditions: for DNA binding in EMSA, in words: 1μg pGREG546, DNA to peptide charge ratio 1:1 or 1:4, 30 minutes
Source text: To test the ability of the designed peptides to bind nucleic acids, we evaluated by electrophoretic mobility shift assays (EMSAs) the retention of DNA by the designed peptides. Each EMSA was executed with peptide quantities that were multiples of the DNA to peptide charge ratio. A DNA to peptide charge ratio of 1:1 is represented by the number of positive charges of the peptide required to neutralize the negative charges of the DNA backbone. Retention in the gel is an indirect measure of the fraction of positive charges within the peptide participating in binding the DNA molecules. All EMSA assays were performed using the yeast plasmid pGREG546. As negative control, pGREG546 without any peptide was used, and as positive control the known DNA-binding cell penetrating peptide MPG was used. […] However, retention in the gel was observed when NLS was joined to any larger peptide fragment.
Fig 4 DNA binding. (A) Quantification of DNA retention obtained from three independent electrophoretic mobility shift assays. All measurements are shown and horizontal bars denote the sample mean. Representative gels are shown in (B-C).
1μg of pGREG546 plasmid was pre-incubated with the required quantity of each peptide to result in a 1:1 or 1:4 peptide charge to DNA charge ratio. Samples were incubated for 30 minutes and loaded on a 1% Agarose gel in SB buffer. DNA affinity was quantified by measuring the mean pixel intensity of the DNA bands with Fiji (http://fiji.sc) and normalizing to the intensity range between an empty spot on the gel and the intensity of the pGREG546 plasmid without any added peptide. Analysis scripts for the EMSA experiments as well as the raw data can be found with the distributed source code at http://bis.ifc.unam.mx/software/dcf.

[5] = tested on: Escherichia coli strain DH5α; format: cell-based; conditions: 12 h
[6] = E. coli DH5α, peptides 0 to 16 μM

With PKKKRKVWHWLQLKPGQPMY [NLS-α] the “pheromone signaling activity (Fus1-GFP expression, phenotype)” value [1] was “significant induction of expression of Fus1-GFP”, the “concentration showing partial growth inhibition” value [2, 6] was 4 µM and the “Secondary Structure Random coil” value ([3]; 50% TFE) was 59%. For the same compound, the “Secondary Structure α-Helix” value ([3]; 50% TFE) was 6%, the “Secondary Structure β-Sheet” value ([3]; 50% TFE) was 35% and the “aggregation suggested by decrease in negative ellipticity” value ([3]; 50% TFE, CD spectra) was “TFE promoted aggregation of the peptides”. The “Secondary Structure Random coil” value ([3]; water) was 67%, the “Secondary Structure α-Helix” value ([3]; water) was 5% and the “Secondary Structure β-Sheet” value ([3]; water) was 28%.
With “WRFVWMNPKKKRKV [NLS-CE, optimized NLS fitting CPP rules]” the “DNA binding in EMSA, in words” value [4] was “effective DNA-binding activity”, the “antibacterial activity against E. coli, in words” value (from here on “antibacterial activity”) [2, 6] was “partial growth inhibition” and the “Secondary Structure Random coil” value ([3]; 50% TFE) was 61%. For the same compound, the “Secondary Structure α-Helix” value ([3]; 50% TFE) was 5%, the “Secondary Structure β-Sheet” value ([3]; 50% TFE) was 34% and the “Secondary Structure Random coil” value ([3]; water) was 64%. The “Secondary Structure α-Helix” value ([3]; water) was 6% and the “Secondary Structure β-Sheet” value ([3]; water) was 31%.
For QPKKKRKV [NLS, reference compound], the “DNA binding in EMSA, in words” value [4] was “not capable of binding DNA in low concentrations” and the “antibacterial activity” value [2, 6] was “no antibacterial activity”.
In the case of `CC1(C)S[C@@H]2[C@H](NC(=O)[C@H](N)c3ccccc3)C(=O)N2[C@H]1C(=O)O` [Ampicillin, reference compound], the MIC ([2]; Escherichia coli, E. coli DH5α, growth curves followed for 24h, relative area under the growth curve, read-out: E. coli MIC for 50% inhibition) was over 48 µM and the MIC ([2]; Escherichia coli, E. coli DH5α, predicted from linear regression and tested experimentally, read-out: E. coli MIC for 100% inhibition) was 100 µM.
For “WHWLQLKPGQPMY [α-factor, mating pheromone α-factor from S. cerevisiae, purchased from Sigma-Aldrich]”, the “DNA binding in EMSA, in words” value [4] was “weak ability to bind DNA”, the DNA retention ([4]; 1:4 DNA to peptide charge ratio, 1μg pGREG546, 30 minutes, 1% agarose gel) was “around 60%” and the “antibacterial activity” value [2, 6] was “no antibacterial activity”.
For `CSCC[C@H](NC(=O)[C@@H]1CCCN1C(=O)[C@H](CCC(N)=O)NC(=O)CNC(=O)[C@@H]1CCCN1C(=O)[C@H](CCCCN)NC(=O)[C@H](CC(C)C)NC(=O)[C@H](CCC(N)=O)NC(=O)[C@H](CC(C)C)NC(=O)[C@H](Cc1c[nH]c2ccccc12)NC(=O)[C@H](Cc1c[nH]cn1)NC(=O)[C@H](Cc1c[nH]c2ccccc12)NC(=O)[C@H](Cc1ccccc1)NC(=O)[C@H](CCCNC(=N)N)NC(=O)[C@H](CC(N)=O)NC(=O)[C@H](CC(C)C)NC(=O)[C@H](Cc1ccccc1)NC(=O)[C@@H](N)CCCCN)C(=O)N[C@@H](Cc1ccc(O)cc1)C(=O)O` [Iztli-1, reference compound], the “pheromone signaling activity (Fus1-GFP expression, phenotype)” value [1] was “same phenotype”, the “E. coli MIC for 100% inhibition” value [5] was 20 µM and the “DNA binding in EMSA, in words” value [4] was “increased its affinity for DNA”. The MIC ([2]; DH5α, 24 h, read-out: E. coli MIC for 50% inhibition) was 8 µM and the “antibacterial activity” value [2, 6] was “very similar E. coli growth inhibition as NLS-α”.
